Results from patent publication EP4818168A1, “FUSED RING COMPOUND, PHARMACEUTICAL COMPOSITION THEREOF AND USE THEREOF” (priority 2023, dated 2025).

molecular target: T1, AURKA (Homo sapiens, UniProt O14965); assay type: cell-based; conditions: 100 nM compound, Jurkat cells, 24 h, Table 2
T1 construct: endogenous in cells; host or cells: Jurkat cells
T1 sequence (O14965 1-403): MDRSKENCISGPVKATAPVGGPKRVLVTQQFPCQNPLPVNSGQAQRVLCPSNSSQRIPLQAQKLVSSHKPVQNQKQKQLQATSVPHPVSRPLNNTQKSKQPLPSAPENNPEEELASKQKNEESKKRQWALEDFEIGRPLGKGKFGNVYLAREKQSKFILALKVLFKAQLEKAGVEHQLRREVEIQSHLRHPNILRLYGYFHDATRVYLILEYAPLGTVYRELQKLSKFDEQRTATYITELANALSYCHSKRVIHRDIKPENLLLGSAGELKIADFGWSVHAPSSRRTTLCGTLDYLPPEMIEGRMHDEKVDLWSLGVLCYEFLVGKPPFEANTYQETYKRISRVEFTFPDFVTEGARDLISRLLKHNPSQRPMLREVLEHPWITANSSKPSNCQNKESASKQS
From the text: WB is a classical biochemical experimental method used to detect the abundance of a target protein in a sample of cells or biological tissue. It relies on specific antigen-antibody binding to detect protein signals from the sample processed by gel electrophoresis: the protein specifically binds to a primary antibody at an epitope; the primary antibody is then conjugated with a secondary antibody to amplify the signal cascade; the signal is read out by chemiluminescent or fluorescent detection. The intracellular protein content is ultimately characterized by the intensity of the optical signals. […] The DC50 value can be calculated by curve fitting of the protein WB exposure signals.
The experimental procedure is as follows: • 1. Seed Jurkat cells into a 12-well plate at 1×10^6 cells/500 µL/well. • 2. Mix the culture medium with the compound to a concentration that is twice the desired final concentration. […] Transfer the cell suspension to a centrifuge tube. Rinse the 12-well plate with PBS and then transfer the PBS from the plate to the same centrifuge tube. Centrifuge at 3000 rpm for 5 min at room temperature. Aspirate the supernatant using a vacuum pump. […] Lyse on ice for 20 min. • 4. Centrifuge the lysed sample at 13000 rpm for 20 min at 4°C. Mix the supernatant with 5× protein loading buffer. Boil at 100°C for 5 min and then cool. Store the denatured protein sample at -20°C. • 5. […] Run electrophoresis at 80 V for 20 min, and then at 120 V constant voltage for 60 min. • 6. Transfer the protein onto a nitrocellulose membrane in an ice bath at 250 mA constant current for 90 min. • 7. […] Incubate with a primary antibody overnight at 4°C. • 9. […] Incubate with a secondary antibody for 1-2 h at room temperature. • 10. […] Expose and image the membrane using a LICOR Odyssey DLx imager.

SMILES | Percentage of AURKA Degradation Induced by 100 nM Compound in Jurkat Cells
O=C1CCN(c2ccc(N3CC(N4CC(NC(=O)c5ccc(Nc6ncc7c(n6)-c6ccc(Cl)cc6C(c6c(F)cccc6F)=NC7)cc5)C4)C3)nc2)C(=O)N1 [Compound A84] | ++ (30% < Degradation ≤ 70%)
O=C1CCN(c2ccc(N3CC(Cn4cnc(-c5ccc(Nc6ncc7c(n6)-c6ccc(Cl)cc6C(c6c(F)cccc6F)=NC7)cc5)c4)C3)nc2)C(=O)N1 [Compound A160] | ++ (30% < Degradation ≤ 70%)
CN(C)CCOc1ccc2c(c1)C(c1c(F)cccc1F)=NCc1cnc(Nc3ccc(N4CC(CN5CCN(c6ccc(N7CCC(=O)NC7=O)cn6)CC5)C4)cc3)nc1-2 [Compound A260] | ++ (30% < Degradation ≤ 70%)
O=C1CCN(c2cncc(N3CCN(C4CN(c5cccc(Nc6ncc7c(n6)-c6ccc(Cl)cc6C(c6c(F)cccc6F)=NC7)c5)C4)CC3)c2C(F)F)C(=O)N1 [Compound A193] | + (Degradation ≤ 30%)
Cc1c(N2CCN(CCc3cccc(Nc4ncc5c(n4)-c4ccc(Cl)cc4C(c4c(F)cccc4F)=NC5)c3)CC2)cncc1N1CCC(=O)NC1=O [Compound A162] | ++ (30% < Degradation ≤ 70%)
O=C1CCN(c2ccc(N3CCC(N4CCN(c5ccc(Nc6ncc7c(n6)-c6ccc(Cl)cc6C(c6c(F)cccc6F)=NC7)cc5)CC4=O)CC3)nc2)C(=O)N1 [Compound A295] | +++ (Degradation > 70%)
O=C1CCN(C23CC(N4CCN(CCNC(=O)c5ccc(Nc6ncc7c(n6)-c6ccc(Cl)cc6C(c6c(F)cccc6F)=NC7)cc5)CC4)(C2)C3)C(=O)N1 [Compound A92] | + (Degradation ≤ 30%)
O=C1CCN(c2cnc(N3CCC(N4CCN(c5ccc(Nc6ncc7c(n6)-c6ccc(Cl)cc6C(c6c(F)cccc6F)=NC7)cc5)C(=O)C4)CC3)s2)C(=O)N1 [Compound A154] | +++ (Degradation > 70%)
O=C1CCN(c2cccc(N3CCN(CC#Cc4ccc(Nc5ncc6c(n5)-c5ccc(Cl)cc5C(c5c(F)cccc5F)=NC6)cc4)CC3)c2)C(=O)N1 [Compound A123] | + (Degradation ≤ 30%)
O=C1CCN(c2ccc(N3CCC(F)(CN4CCN(C56CC(Nc7ncc8c(n7)-c7ccc(Cl)cc7C(c7nccs7)=NC8)(C5)C6)C(=O)C4)CC3)nc2)C(=O)N1 [Compound A278] | ++ (30% < Degradation ≤ 70%)
O=C1CCN(c2cncc(N3CCC(N4CC5(CN(c6cccc(Nc7ncc8c(n7)-c7ccc(Cl)cc7C(c7c(F)cccc7F)=NC8)c6)C5)C4)CC3)c2)C(=O)N1 [Compound A241] | +++ (Degradation > 70%)
O=C1CCN(c2ccc(N3CC4(C3)CN(C3CN(c5ccc(Nc6ncc7c(n6)-c6ccc(Cl)cc6C(c6c(F)cccc6F)=NC7)cc5)C3)C4)nc2)C(=O)N1 [Compound A204] | +++ (Degradation > 70%)
O=C1CCN(c2ccc(N3CCN(CCNc4ccc(Nc5ncc6c(n5)-c5ccc(Cl)cc5C(c5c(F)cccc5F)=NC6)cc4)CC3)cc2)C(=O)N1 [Compound A108] | + (Degradation ≤ 30%)

same assay, conditions: 1 µM compound, Jurkat cells, 24 h, Table 2

SMILES | Percentage of AURKA Degradation Induced by 1 µM Compound in Jurkat Cells
O=C1CCN(c2ccc(N3CC(N4CC(NC(=O)c5ccc(Nc6ncc7c(n6)-c6ccc(Cl)cc6C(c6c(F)cccc6F)=NC7)cc5)C4)C3)nc2)C(=O)N1 [Compound A84] | +++ (Degradation > 70%)
O=C1CCN(c2ccc(N3CC(Cn4cnc(-c5ccc(Nc6ncc7c(n6)-c6ccc(Cl)cc6C(c6c(F)cccc6F)=NC7)cc5)c4)C3)nc2)C(=O)N1 [Compound A160] | ++ (30% < Degradation ≤ 70%)
CN(C)CCOc1ccc2c(c1)C(c1c(F)cccc1F)=NCc1cnc(Nc3ccc(N4CC(CN5CCN(c6ccc(N7CCC(=O)NC7=O)cn6)CC5)C4)cc3)nc1-2 [Compound A260] | ++ (30% < Degradation ≤ 70%)
O=C1CCN(c2cncc(N3CCN(C4CN(c5cccc(Nc6ncc7c(n6)-c6ccc(Cl)cc6C(c6c(F)cccc6F)=NC7)c5)C4)CC3)c2C(F)F)C(=O)N1 [Compound A193] | + (Degradation ≤ 30%)
Cc1c(N2CCN(CCc3cccc(Nc4ncc5c(n4)-c4ccc(Cl)cc4C(c4c(F)cccc4F)=NC5)c3)CC2)cncc1N1CCC(=O)NC1=O [Compound A162] | ++ (30% < Degradation ≤ 70%)
O=C1CCN(c2ccc(N3CCC(N4CCN(c5ccc(Nc6ncc7c(n6)-c6ccc(Cl)cc6C(c6c(F)cccc6F)=NC7)cc5)CC4=O)CC3)nc2)C(=O)N1 [Compound A295] | ++ (30% < Degradation ≤ 70%)
O=C1CCN(C23CC(N4CCN(CCNC(=O)c5ccc(Nc6ncc7c(n6)-c6ccc(Cl)cc6C(c6c(F)cccc6F)=NC7)cc5)CC4)(C2)C3)C(=O)N1 [Compound A92] | + (Degradation ≤ 30%)
O=C1CCN(c2cnc(N3CCC(N4CCN(c5ccc(Nc6ncc7c(n6)-c6ccc(Cl)cc6C(c6c(F)cccc6F)=NC7)cc5)C(=O)C4)CC3)s2)C(=O)N1 [Compound A154] | ++ (30% < Degradation ≤ 70%)
O=C1CCN(c2cccc(N3CCN(CC#Cc4ccc(Nc5ncc6c(n5)-c5ccc(Cl)cc5C(c5c(F)cccc5F)=NC6)cc4)CC3)c2)C(=O)N1 [Compound A123] | + (Degradation ≤ 30%)
O=C1CCN(c2ccc(N3CCC(F)(CN4CCN(C56CC(Nc7ncc8c(n7)-c7ccc(Cl)cc7C(c7nccs7)=NC8)(C5)C6)C(=O)C4)CC3)nc2)C(=O)N1 [Compound A278] | +++ (Degradation > 70%)
O=C1CCN(c2cncc(N3CCC(N4CC5(CN(c6cccc(Nc7ncc8c(n7)-c7ccc(Cl)cc7C(c7c(F)cccc7F)=NC8)c6)C5)C4)CC3)c2)C(=O)N1 [Compound A241] | ++ (30% < Degradation ≤ 70%)
O=C1CCN(c2ccc(N3CC4(C3)CN(C3CN(c5ccc(Nc6ncc7c(n6)-c6ccc(Cl)cc6C(c6c(F)cccc6F)=NC7)cc5)C3)C4)nc2)C(=O)N1 [Compound A204] | ++ (30% < Degradation ≤ 70%)
O=C1CCN(c2ccc(N3CCN(CCNc4ccc(Nc5ncc6c(n5)-c5ccc(Cl)cc5C(c5c(F)cccc5F)=NC6)cc4)CC3)cc2)C(=O)N1 [Compound A108] | + (Degradation ≤ 30%)
